Data: PubChem BioAssay AID1919006 (Molecular Pharmacology Branch, DTP, NCI, 2023)
Where “and” joins values, the source holds several entries; their conditions need not be identical. Equal entries are not always repeated.

Tested on: 885512-296-R-J2-PDC complex spheroid growth, % test/control
Assay: Anticancer human tumor 885512-296-R-J2-PDC patient-derived breast carcinoma cell line growth inhibition [AhR]
Details: for viability, T/C: stronger effect = lower value; active = viability on the fitted dose curve at most 10% of control; inactive = the rest
Method in brief: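 Spheroids combined tumor cells with HUVEC endothelial cells and human MSCs as stroma. AhR antagonists were paired with standard or investigational drugs, each dosed in half-log steps down from near clinical Cmax, or from 10 microM where Cmax was unknown.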

[1] = curve of first compound, second compound 0.1 µM
[2] = curve of first compound, second compound 0.316 µM
[3] = curve of first compound, second compound 1 µM
[4] = curve of first compound, second compound 3.16 µM
[5] = curve of first compound, second compound 10 µM
[6] = second compound 0.1 µM, first compound 0.0316 µM
[7] = second compound 0.1 µM, first compound 0.1 µM
[8] = second compound 0.1 µM, first compound 0.316 µM
[9] = second compound 0.1 µM, first compound 1 µM
[10] = second compound 0.1 µM, first compound 3.16 µM
[11] = second compound 0.1 µM, first compound 10 µM
[12] = second compound 0.316 µM, first compound 0.0316 µM
[13] = second compound 0.316 µM, first compound 0.1 µM
[14] = second compound 0.316 µM, first compound 0.316 µM
[15] = second compound 0.316 µM, first compound 1 µM
[16] = second compound 0.316 µM, first compound 3.16 µM
[17] = second compound 0.316 µM, first compound 10 µM
[18] = second compound 1 µM, first compound 0.0316 µM
[19] = second compound 1 µM, first compound 0.1 µM
[20] = second compound 1 µM, first compound 0.316 µM
[21] = second compound 1 µM, first compound 1 µM
[22] = second compound 1 µM, first compound 3.16 µM
[23] = second compound 1 µM, first compound 10 µM
[24] = second compound 3.16 µM, first compound 0.0316 µM
[25] = second compound 3.16 µM, first compound 0.1 µM
[26] = second compound 3.16 µM, first compound 0.316 µM
[27] = second compound 3.16 µM, first compound 1 µM
[28] = second compound 3.16 µM, first compound 3.16 µM
[29] = second compound 3.16 µM, first compound 10 µM
[30] = second compound 10 µM, first compound 0.0316 µM
[31] = second compound 10 µM, first compound 0.1 µM
[32] = second compound 10 µM, first compound 0.316 µM
[33] = second compound 10 µM, first compound 1 µM
[34] = second compound 10 µM, first compound 3.16 µM
[35] = second compound 10 µM, first compound 10 µM
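Also: spheroids exposed to compounds for seven days.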

Nc1ccccc1NC(=O)c1ccc(CNC(=O)OCc2cccnc2)cc1
10.4% and 10.3% (2×): viability, T/C (compound 10 µM)
inactive: viability, T/C (compound 0.0316 µM) 79.7% and 97% and 82.8% | viability, T/C (compound 0.1 µM) 86.1% and 81.5% and 74.1% | viability, T/C (compound 0.316 µM) 67.5% and 63.9% and 58.3% | viability, T/C (compound 1 µM) 48.1% (2×) and 46.7% | viability, T/C (compound 3.16 µM) 25.6% and 24.4% and 32.2%
920 nM and 758 nM and 747 nM: IC50 (curve of compound)

Nc1ncn(C2CC(O)C(CO)S2)c(=O)n1 (centres undefined)
129 nM and 160 nM and 239 nM: IC50 (curve of compound)
inactive: viability, T/C (compound 0.000949 µM) 109% and 103% and 93% | viability, T/C (compound 0.003 µM) 93.6% and 108% and 103% | viability, T/C (compound 0.00949 µM) 96.9% and 120% and 104% | viability, T/C (compound 0.03 µM) 89.1% and 99.3% and 116% | viability, T/C (compound 0.0949 µM) 56.2% and 61.2% and 75.9% | viability, T/C (compound 0.3 µM) 31.1% and 37% and 43.6%

COc1cccc2c1C(=O)c1c(O)c3c(c(O)c1C2=O)CC(O)(C(=O)CO)CC3OC1CC(N)C(O)C(C)O1 (centres undefined) + Cc1cncc(-c2nc(NCCc3c[nH]c4ccccc34)c3ncn(C(C)C)c3n2)c1
< 31.6 nM: IC50 [1] | IC50 [2] | IC50 [3] | IC50 [4] | IC50 [5]
inactive: viability, T/C [6] 23.9% | viability, T/C [7] 15.2% | viability, T/C [12] 24.4% | viability, T/C [13] 19.5% | viability, T/C [18] 19.7% | viability, T/C [19] 17.9% | viability, T/C [24] 17.6% | viability, T/C [30] 11.9%
active: viability, T/C [8] 5.94% | viability, T/C [9] 0.65% | viability, T/C [10] 2.45% | viability, T/C [11] 1.44% | viability, T/C [14] 6.25% | viability, T/C [15] 0.34% | viability, T/C [16] 2.13% | viability, T/C [17] 1.46% | viability, T/C [20] 5.13% | viability, T/C [21] 0.84% | viability, T/C [22] 1.28% | viability, T/C [23] 1.33% | viability, T/C [25] 12.1% | viability, T/C [26] 3.2% | viability, T/C [27] 0.73% | viability, T/C [28] 0.57% | viability, T/C [29] 0.58% | viability, T/C [31] 5.06% | viability, T/C [32] 0.48% | viability, T/C [33] 0.21% | viability, T/C [34] 0.27% | viability, T/C [35] 0.26%

CC1COCCN1c1cc(C2(S(C)(=N)=O)CC2)nc(-c2ccnc3[nH]ccc23)n1 (centres undefined) + CC(CO)NC(=O)c1cc(-c2ccc(Cl)cc2)nn(-c2cnn(C)c2)c1=O
1140 nM: IC50 [4]
1680 nM: IC50 [1]
1550 nM: IC50 [3]
671 nM: IC50 [5]
1800 nM: IC50 [2]
active: viability, T/C [11] 5.46% | viability, T/C [17] 4.07% | viability, T/C [23] 5.36% | viability, T/C [29] 4.04% | viability, T/C [35] 4.98%
inactive: viability, T/C [6] 102% | viability, T/C [7] 96.4% | viability, T/C [8] 87% | viability, T/C [9] 76% | viability, T/C [10] 19.1% | viability, T/C [12] 95.1% | viability, T/C [13] 102% | viability, T/C [14] 94.2% | viability, T/C [15] 84.4% | viability, T/C [16] 17.1% | viability, T/C [18] 100% | viability, T/C [19] 97% | viability, T/C [20] 99% | viability, T/C [21] 70.3% | viability, T/C [22] 16.7% | viability, T/C [24] 89.4% | viability, T/C [25] 83.5% | viability, T/C [26] 82.8% | viability, T/C [27] 55.1% | viability, T/C [28] 11.1% | viability, T/C [30] 96.9% | viability, T/C [31] 95.3% | viability, T/C [32] 72.6% | viability, T/C [33] 38.3% | viability, T/C [34] 11.3%
